Here are results for 1 molecule from US6548543B1, “Remedies or preventives containing cyclopentenone compounds as the active ingredient” (Takara Shuzo Co., Ltd., priority 1998, dated 2003).

The structures appear in SMILES notation.

Experiment [1] deals with spleen lymphocytes stimulated with Ehrlich ascites carcinoma cells. Description: Cancer cell-specific proliferation of spleen lymphocytes from treated tumor-bearing mice. The experiment is classed as in vivo, ddY mice. Particulars: for 3H-thymidine uptake: 10 mg/kg intraperitoneal. How it is done: ddY mice (female, 7 weeks old) were purchased from Japan SLC and pre-bred 1 week before using in experiments.
1×10^6 Ehrlich ascites carcinoma cells were intraperitoneally inoculated to each mouse. 10 mg/kg of cyclopentene, 30 mg/kg of GM or 10 mg/kg of dipropionylcyclopentene was intraperitoneally administered to the mouse on the day after the inoculation. Saline was administered to a control mouse.
A spleen was taken out from the mouse 10 days after the inoculation with cancer cells, finely minced and suspended in RPMI-1640 medium (Gibco) containing 10% FCS (HyClone) to obtain a single cell suspension. Adhesive cells in the cell suspension adhered to a plastic Petri dish were removed and non-adhesive cells were used as spleen lymphocytes.
The spleen lymphocytes were suspended in RPMI-1640 medium containing 10% FCS at a concentration of 2×10^6/ml. 100 μl/well of the suspension was seeded into a microtiter plate.
Stimulated cells were prepared as follows. Mitomycin C (Kyowa Hakko Kogyo) was added to a concentration of 50 μg/ml to Ehrlich ascites carcinoma cells suspended in RPMI-1640 medium at a concentration of 2×10^6 cells/ml. The cells were treated at 37° C. for 30 minutes, washed twice and then suspended in RPMI-1640 medium containing 10% FCS to prepare stimulated cells at a concentration of 2×10^6 cells/ml. 100 μl of the thus prepared stimulated cells was overlaid onto each well of the plate into which 100 μl/well of the spleen lymphocytes had been added. The plate was incubated at 37° C. for 5 days in a 5% CO2 incubator. 37 kBq of ^3H-thymidine (Daiichi Pure Chemicals) was added to the well to pulse-label the cells on the day before the completion of the cultivation. After cultivation, the cells were harvested on a glass filter to measure the radioactivity.

Experiment [2] concerns adhesion between vascular endothelial cells and HL-60 cells. As to the kind of experiment: Adhesion of HL-60 cells to TNF-α-stimulated vascular endothelial cells. The class given is cell-based, Human. Particulars: for Adhesion rate: TNF-α-stimulated endothelial cells. How it is done:
Human vascular endothelial cells (sold by Sanko Junyaku) suspended in RPMI-1640 medium (Gibco) containing 10% FCS (HyClone) at a concentration of 1×10^5 cells/ml. 100 μl/well of the suspension was seeded into a 96-well microtiter plate.
100 U/ml of human recombinant TNF-α (Promega) was added to monolayer of vascular endothelial cells after incubation at 37° C. for 2 days in a 5% CO2 incubator. The plate was incubated 37° C. for 6 hours in a 5% CO2 incubator to prepare vascular endothelial cells stimulated with TNF-α.
On the other hand, cyclopentenone, GM or dipropionylcyclopentenone at a varying concentration was added to HL-60 cells suspended in RPMI-1640 medium containing 10% FCS at a concentration of 1×10^6 cells/ml. The cells were cultured at 37° C. for 3 hours in a 5% CO2 incubator. After cultivation, 5 μM of 5(-and-6)-carboxyfluorescein diacetate, succinimide ester (Molecular Probe) as a fluorescent agent was added thereto and reacted at 37° C. for 10 minutes. The cells were washed twice with RPMI-1640 medium and suspended in RPMI-1640 medium containing 10% FCS to prepare a suspension of fluorescence-labeled HL-60 cells at a concentration of 1×10^6 cells/ml.
100 μl/well of the fluorescence-labeled HL-60 cells were overlaid onto the vascular endothelial cells stimulated with TNF-α. Cyclopentenone, GM or dipropionylcyclopentenone at a varying concentration was added thereto. The plate was incubated at 37° C. for 20 minutes in a 5% CO2 incubator for adhesion reaction between vascular endothelial cells and HL-60 cells.
After the adhesion reaction, the plate was washed to remove non-adhesive cells. 1% Triton X (Nacalai Tesque) was added thereto to destroy adhesive cells. The fluorescence intensity was measured using filters for 485/22 nm (excitation) and 530/25 nm (emission).
The adhesion rate which represents the ratio of cells adhered to vascular endothelial cells was determined defining the fluorescence intensity for 1×10^5 fluorescence-labeled cells as 100%.

As to `CCC(=O)OC1C=CC(=O)C1OC(=O)CC` (centres unmarked), the 3H-thymidine uptake in experiment [1] (no stimulation with cancer cell) is reported as 9250 CPM; in experiment [1] (stimulation with cancer cell), 20748 CPM. Further, in experiment [1] (mice administered intraperitoneally), the “Growth of spleen lymphocytes on stimulation with cancer cells (statement)” value was “significantly enhanced”. The Adhesion rate is on record as 49.2% in experiment [2] (0.1 μM), 35.1% in experiment [2] (1 μM), 15.3% in experiment [2] (10 μM) and 15.5% in experiment [2] (100 μM). Further, the “Suppression of TNF-α-induced increase in adhesion rate (statement)” value in experiment [2] (10^−7 to 10^−4 M, dose-dependent) is “suppressed”.
